Assay results reported in patent US11624685B2, “Method and system for imaging and analysis of a biological specimen” (The Board of Trustees of the Leland Stanford Junior …, priority 2016, dated 2023).

How the values were obtained:
ArcTRAP mice = test: ArcTRAP labeling, background recombination; assay type: in vivo, mouse; details: novel aqueous formulation of 4TM, reduced dosage
Excerpt: Male ArcTRAP (ArcCreER+/−, Ai14+/−) mice were used for study. 6-7 week old ArcTRAP mice were handled and injected with saline daily for at least 5 days prior to the experiment (including the home cage controls) to minimize the labeling due to handling and injections. The mice were 7-8 weeks old at the time of behavioral labeling. […] The home cage control group remained in their home cage for the whole period. All the chambers were cleaned with 70% ethanol between trials. On experimental day 2, all mice received 5 mg/kg 4TM (IP injection) 3 hours after the behavioral challenge to enable TRAP labeling. All groups, including the home cage controls, received 4-hyroxytamoxifen injections at the same time of the day (2-3 PM). The bedding of all cages were refreshed daily for 48 hours to prevent 4TM retake. All the labeled mice were kept in their home cage for an additional 10 days to allow the full expression of tdTomoto before perfusion.
10 mg of 4TM (Sigma H6278) was first dissolved in 250 μl DMSO. This stock is first diluted in 5 ml of saline containing 2% Tween 80 and then diluted 1:1 again with saline. The final injectable solution contained: 1 mg/ml 4TM, 1% Tween 80 and 2.5% DMSO in saline.

mPFC of Arc-rTag mice = test: Activity-dependent ribosome profiling of mPFC (microarray, qPCR); assay type: in vivo, mouse; details: IP fraction, two weeks after labeling
Method: Male Arc-rTag mice were trained and labeled with 4TM with the same protocol used in ArcTRAP labeling. After labeling, the mice were returned and kept in their home cage for 14 days to allow full integration of tagged ribosomes.
Immunoaffinity purification of ribosome RNA from mPFC was carried out similarly to a protocol previously described (Sanz et al, Proc Natl Acad Sci USA, 106:13939-13944 (2009)) with minor modifications. For preparation of anti-GFP-conjugated dynabeads, for each sample 50 μl protein G dynabeads (Life Technologies) was first washed with PBST and then incubated with 2 μl anti-GFP antibody (Abcam, ab290) in a total volume of 200 μl PBST. […] RNA samples (all at 100 ng per sample) were processed at the Stanford Protein and Nucleic Acid Biotechnology Facility by one-cycle target preparation, labeling and hybridization to Mouse Gene 2.0 ST Array (Affymetrix), according to the manufacturer's protocol and analyzed by Affymetrix Transcriptiome Analysis Console.
For qPCR analysis, RNA was reverse transcribed using the ABI high capacity cDNA synthesis kit and used in quantitative PCR reactions containing SYBR-green fluorescent dye (ABI). Relative expression of mRNAs was determined after normalization with TBP levels using the ΔΔCt method. […]

Molecule | background recombination in ArcTRAP line (ArcTRAP mice) | Npas4 transcript enrichment in cocaine-activated cells compared to shock-activated cells (mPFC of Arc-rTag mice)
4-hydroxytamoxifen [4TM] | eliminate the background recombination | 
COC(=O)[C@H]1[C@@H](OC(=O)c2ccccc2)C[C@@H]2CC[C@H]1N2C [cocaine] |  | 3 fold
